What was measured:
[1] = test system: DNFB contact hypersensitivity; experiment: Dinitrofluorobenzene (DNFB) contact hypersensitivity test, ear thickening after topical application; type: in vivo, C57 BL/6JICO mice; conditions: Example 13
Source text: Study of the Anti-allergic activity of the Peptide compounds, by the Dinitrofluorobenzene (DNFB) contact Hypersensitivity test.
Female C57 BL/6JICO mice 5 weeks old are separated into ten batches of ten animals (five per cage), with free access to water and food, subjected to a photoperiod of twelve hours of light per twenty-four hours.
The animals in batches 1 to 6 receive daily and per topical application on the shaved skin of the back, the products to be studied, dissolved in propylene glycol, in a constant volume of 50 μl and for five consecutive days.
PIII--Batches 1 - 2 - 3--2.5 μg --0.5 μg--0.1 μg--mouse/day
PIV--Batches 4 - 5 - 6 - 2.5μg--0.5 μg--0.1 μg--mouse/day
The animals of the X batch serve as controls (and receive only, 50 μl of propylene glycol per topical application for five days).
On the fifth day, thirty minutes after the last application, all the mice are sensitized with 25 μl of DNFB (2.4-Dinitro-1-FluoroBenzene (FLUKA CHEMIKA PURUM at 97% batch No. 33820890) at 2% in a 4 to 1 mixture of acetone (SDS ref. 0510) and triolein (FLUKA) applied topically over the dorsal region of shaved skin.
On the sixth day, a new sensitization is carried out by application of DNFB.
On the eleventh day, the thickness of the ears of the mice is measured with the aid of a micrometer (ROCH 0 to 25 mm in 1/100 mm) in order to obtain base values, then the ears are stimulated by topical application of 20 μl of DNFB at 0.8%.
On the twelfth day, the thickness of the ears is again measured. The mean value of thickening of the ears is established for the mice in the batches which had received the products to be studied, as well as for the mice in the control batch.
The percentage of suppression where appropriate will be expressed by the following calculation: [formula]
Comparative study of the activity of Lipoyl-Peptides and of their peptide structures on DNFB contact hypersensitivity.
The method used is that described above in Example 10.
Contact hypersensitivity induced in mice by Dinitrofluorobenzene--"DNBF"
Batch I: (DL) - Lip - Glu - His - D.homoPhe - Arg - Trp - Gly - NH2
Batch II: H - Glu - His - D.homoPhe - Arg - Trp - Gly - NH2
Batch III: Control=(DL) - Lipoic Acid
Solvent: propylene Glycol previously used as control in Example 10.
Control: dose used"DL-Lipoic-Acid"=10 ng per mouse and per day.
On the fifth day, thirty minutes after the last application, all the mice were sensitized with 25 μl of DNFB (2.4-Dinitro-1-FluoroBenzene (FLUKA CHEMIKA PURUM at 97% batch No. 33820890) at 2% in a 4 to 1 mixture of acetone (SDS ref. 05510) and triolein (FLUKA) applied topically over the dorsal region of shaved skin.
On the twelfth day, the thickness of the ears is again measured. The mean value of thickening of the ears is established for the mice in the batches which had received the products to be studied, as well as for the mice in the control batch. The percentage of suppression where appropriate will be expressed by the following calculation: [formula]

[2] = test system: cultured embryonic cells; experiment: Effects of Peptides PI and PIV on cultured embryonic cells in vitro (melanocytes, neurons, muscular cells, fibroblasts); type: cell-based
Method: Effects of Peptides PI and PIV on cultured embryonic cells in vitro . . . "Melanocytes - Neurons - Muscular Cells and Fibroblasts . . . " dose used 1 μg/ml (defined by dose/response trials)
1 single treatment during the innoculation of the cells or several successive treatments (renewal of the medium every 48 hours) duration of culture: 6 to 8 days
1) Counting of the melanocytes
2) Assay of melanin by HPLC and/or by spectrophotometry
Daily observation of the cultures
Ultrastructure by transmission electron microscopy.

Molecule: O=C(O)CCCCC1CCSS1 (stereo not drawn) [Lipoic acid, (DL) - Lipoic Acid, reference compound]
- suppressive effect of cutaneous hypersensitivity (in words) ([1]; 10 ng per mouse and per day, in solution in Propylene Glycol): No suppressive effect

Molecule: [(DL) Lip] Glu - His - D.homoPhe - Arg - Trp - Gly - NH2 [PI]
- effect on precursor embryonic cells not yet determined in the melanoblastic pathway (in words) ([2]; 1 μg/ml): no effect
- effect on the melanoblasts already induced (in words) ([2]; 1 μg/ml): stimulating effect
- number of melanocytes increases by a factor ([2]; 1 μg/ml): ≥ 2
- toxic effect on astroglial cells (in words) ([2]; 1 μg/ml): No toxic effect
- toxic effect on fibroblasts, mesenchyme (in words) ([2]; 1 μg/ml): no toxic effect
- quantity of biosynthesized melanin per cell ([2]; 1 μg/ml, after eight days of culture): 1.4 ng/cell
- toxic effect on myoblasts (in words) ([2]; 1 μg/ml, even at an ultrastructural level): no toxic effect
- effect on melanogenesis, summary (in words) ([2]; qualitative and quantitative): stimulate melanogenesis
- cytotoxic effect on the various cell categories (in words) ([2]; summary): no cytotoxic effect
- stimulating effect on the other cell types: neurons, astrocytes, muscle cells, fibroblasts (in words) ([2]; summary): without stimulating effect
- % SUPPRESSION RELATIVE TO THE CONTROL BATCH, Left Ear ([1]; 1 ng/mouse/day): -75.40%
- % SUPPRESSION RELATIVE TO THE CONTROL BATCH, Right Ear ([1]; 1 ng/mouse/day): -75.58%
- LEFT EAR MEAN % INCREASE ([1]; 1 ng/mouse/day): 13.86%
- RIGHT EAR MEAN % INCREASE ([1]; 1 ng/mouse/day): 13.86%
- % SUPPRESSION RELATIVE TO THE CONTROL BATCH, Left Ear ([1]; 10 ng/mouse/day): -77.01%
- % SUPPRESSION RELATIVE TO THE CONTROL BATCH, Right Ear ([1]; 10 ng/mouse/day): -76.90%
- LEFT EAR MEAN % INCREASE ([1]; 10 ng/mouse/day): 12.95%
- RIGHT EAR MEAN % INCREASE ([1]; 10 ng/mouse/day): 13.01%
- % SUPPRESSION RELATIVE TO THE CONTROL BATCH, Left Ear ([1]; 100 ng/mouse/day): -79.30%
- % SUPPRESSION RELATIVE TO THE CONTROL BATCH, Right Ear ([1]; 100 ng/mouse/day): -79.45%
- LEFT EAR MEAN % INCREASE ([1]; 100 ng/mouse/day): 11.66%
- RIGHT EAR MEAN % INCREASE ([1]; 100 ng/mouse/day): 11.66%
- suppression of cutaneous hypersensitivity ([1]; 100 ng/mouse/day): 79%

Source: US5830994A, “Peptide derivatives of alpha-MSH and their application” (Institut Europeen De Biologie Cellulaire, priority 1993, dated 1998)
